Experimental data published in patent US8895568B2, “Compositions comprising substituted pteridines as agrochemicals” (Dow AgroSciences LLC, priority 2009, dated 2014).
Like-named read-outs stand apart in the source and are kept apart here.

Experiments:
Assay type in all cases: in vivo
[1] = tested on: Pseudoperonospora cubensis; assay: Cucumber Downy Mildew (PSPECU), foliar spray, percent disease control; conditions: read-out: PSPECU percent control
[2] = tested on: DROSME, AEDSAE, LAPHEG, or HELIVI; assay: Insecticidal activity, active if any of DROSME, AEDSAE, LAPHEG or HELIVI was controlled at 80% or more; conditions: read-out: >80% mortality on any insect species @ 4000 ppm
[3] = tested on: Colletotricum lagenarium; assay: Cucumber Anthracnose (COLLLA), foliar spray, percent disease control
[4] = tested on: Cochliobolus sativus; assay: Spot Blotch of Wheat (COCHSA), foliar spray, percent disease control; conditions: Bipolaris sorokiniana, read-out: COCHSA percent control

SMILES	pest or weed control at 200 µg/mL ([1]; foliar) [%]	pest or weed control at 4000 ppm [2] [%]	pest or weed control at 200 µg/mL ([3]; foliar) [%]	pest or weed control at 200 µg/mL ([4]; foliar) [%]	pest or weed control at 200 µg/mL ([1]; foliar spray) [%]	pest or weed control at 200 µg/mL ([3]; foliar spray) [%]	pest or weed control at 200 µg/mL ([4]; foliar spray) [%]
Cc1cc(CCNc2ncnc3nccnc23)ccc1Oc1cncc(Cl)c1C#N [Compound 142]	80 to 100	> 80	0 to 49	0 to 49	–	–	–
Cc1cc(CCNc2ncnc3nccnc23)ccc1Oc1ncc(C(F)(F)F)cc1F [Compound 143]	80 to 100	> 80	0 to 49	0 to 49	–	–	–
Cc1c(CCNc2ncnc3nccnc23)ccc(Oc2ccc(C(F)(F)F)cn2)c1C [Compound 144]	80 to 100	> 80	0 to 49	0 to 49	–	–	–
Cc1c(CCNc2ncnc3nccnc23)ccc(Oc2cc(C(F)(F)F)ccn2)c1C [Compound 145]	80 to 100	> 80	50 to 79	0 to 49	–	–	–
CCc1ncnc(Oc2ccc(CCNc3ncnc4nccnc34)cc2)c1Cl [Compound 146]	80 to 100	> 80	50 to 79	0 to 49	–	–	–
Cc1c(CCNc2ncnc3nccnc23)ccc(Oc2ncc(C(F)(F)F)cc2F)c1C [Compound 148]	80 to 100	> 80	0 to 49	0 to 49	–	–	–
Fc1cc(F)c(Oc2ccc(CCNc3ncnc4nccnc34)cc2)nc1F [Compound 150]	80 to 100	> 80	0 to 49	0 to 49	–	–	–
Cc1cc(Oc2cc(C(F)(F)F)ccn2)c(C)cc1CCNc1ncnc2nccnc12 [Compound 152]	80 to 100	> 80	0 to 49	0 to 49	–	–	–
CCOc1cc(CCNc2ncnc3nccnc23)ccc1Oc1cc(C(F)(F)F)ccn1 [Compound 153]	80 to 100	> 80	0 to 49	0 to 49	–	–	–
Cc1cc(CCNc2ncnc3nccnc23)ccc1Oc1cc(C#N)ccn1 [Compound 155]	80 to 100	> 80	50 to 79	0 to 49	–	–	–
Cc1cc(Oc2ccc(C(F)(F)F)cn2)c(C)cc1CCNc1ncnc2nccnc12 [Compound 156]	80 to 100	> 80	0 to 49	0 to 49	–	–	–
CCOc1cc(CCNc2ncnc3nccnc23)ccc1Oc1ccc(C(F)(F)F)cn1 [Compound 157]	80 to 100	> 80	0 to 49	0 to 49	–	–	–
Cc1nc2ncnc(NCCc3ccc(Oc4cc(C(F)(F)F)ccn4)cc3)c2nc1C [Compound 162]	80 to 100	> 80	0 to 49	0 to 49	–	–	–
Cc1nc2ncnc(NCCc3ccc(Oc4ncc(C(F)(F)F)cc4F)cc3)c2nc1C [Compound 163]	80 to 100	> 80	80 to 100	0 to 49	–	–	–
CC(C)OC(=O)c1cnc(Oc2ccc(CCNc3ncnc4nccnc34)cc2)c(Cl)c1 [Compound 164]	0 to 49	> 80	0 to 49	0 to 49	–	–	–
CC(C)(C)OC(=O)c1ccc(Oc2ccc(CCNc3ncnc4nccnc34)cc2)nc1 [Compound 165]	80 to 100	> 80	0 to 49	0 to 49	–	–	–
Cc1cc(CCNc2ncnc3nccnc23)ccc1Oc1c(F)cnc(C(F)(F)F)c1F [Compound 166]	80 to 100	> 80	50 to 79	0 to 49	–	–	–
Cc1cc(CCNc2ncnc3nccnc23)ccc1Oc1cc(C(C)(F)F)ccn1 [Compound 169]	80 to 100	> 80	50 to 79	0 to 49	–	–	–
COc1cc(CCNc2ncnc3nccnc23)ccc1Oc1cc(C(C)(F)F)ccn1 [Compound 170, (2-{4-[4-(1,1-difluoroethyl)-pyridin-2-yloxy]-3-methoxyphenyl}-ethyl)-pteridin-4-yl-amine]	80 to 100	> 80	0 to 49	0 to 49	–	–	–
FC(F)(F)c1ccnc(Oc2ccc(CCNc3ncnc4nccnc34)cc2Cl)c1 [Compound 187]	80 to 100	> 80	80 to 100	0 to 49	–	–	–
CCCOc1cc(CCNc2ncnc3nccnc23)ccc1Oc1cc(C(F)(F)F)ccn1 [Compound 188]	80 to 100	> 80	80 to 100	0 to 49	–	–	–
CC(=O)Oc1cc(CCNc2ncnc3nccnc23)ccc1Oc1cc(C(F)(F)F)ccn1 [Compound 190, Acetic acid 5-[2-(pteridin-4-ylamino)-ethyl]-2-(4-trifluoromethylpyridin-2-yloxy)-phenyl ester]	0 to 49	> 80	0 to 49	0 to 49	–	–	–
CC(C)(C)OC(=O)c1ccnc(Oc2ccc(CCNc3ncnc4nccnc34)cc2)c1 [Compound 192]	80 to 100	> 80	80 to 100	0 to 49	–	–	–
Cc1cc(Oc2cc(C(C)(F)F)ccn2)c(C)cc1CCNc1ncnc2nccnc12 [Compound 194]	80 to 100	> 80	80 to 100	0 to 49	–	–	–
COc1cc(C(F)(F)F)cc(Oc2ccc(CCNc3ncnc4nc(C)c(C)nc34)cc2)n1 [Compound 198]	0 to 49	> 80	0 to 49	0 to 49	–	–	–
CCCOc1cc(CCNc2ncnc3nccnc23)ccc1Oc1cc(C(C)(F)F)ccn1 [Compound 199]	80 to 100	> 80	0 to 49	0 to 49	–	–	–
Cc1nc2ncnc(NCCc3ccc(Oc4ncccc4C(F)(F)F)cc3)c2nc1C [Compound 200]	–	> 80	–	–	0 to 49	0 to 49	0 to 49
COC(=O)c1cnc(Oc2ccc(CCNc3ncnc4nccnc34)cc2)cc1C(F)(F)F [Compound 202]	–	> 80	–	–	80 to 100	0 to 49	0 to 49
CC(C)c1ccnc(Oc2ccc(CCNc3ncnc4nccnc34)cc2)c1 [Compound 203]	–	> 80	–	–	80 to 100	50 to 79	0 to 49
